Data from PubChem BioAssay (NCI).
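Grown in 96-well plates, cells were treated for 48 hours with each compound at five concentrations. Insufficient inhibition: endpoint recorded as highest concentration tested. GI50 is the concentration that inhibits growth by half. TGI: total growth inhibition.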 *1 amine or outer side, *2 acyl side, *3 side chain or, on linkers, in order; H or OH if unused. Where a SMILES comes first, the peptide text is derived from it. Bridges are numbered along the chain shown (N, C = ends). [ ]: non-standard residue; d: D form. The star is where a group is joined. ξ: configuration not given here. Phe(3,5-F2) = N[C@@H](Cc1cc(F)cc(F)c1)C(=O)O; ξThr(3S) = C[C@H](O[*:3])C(N[*:1])C(=O)[*:2]; X25 = C[C@H]1OCCN([*:1])[C@@H]1C(=O)[*:2]; Pro(4R-Me) = C[C@H]1CN[C@H](C(=O)O)C1; X24 = O=S(=O)(F)Oc1ccc(N*)cc1; CO = O=C([*:1])[*:2]

What follows are molecules tested on MDA-MB-468 breast (assay: NCI tumour cell line growth inhibition, 48 h).

Row | Compound | GI50 | TGI
1 | S=C(Sc1ccc(Cl)cc1)Sc1ccc(Cl)cc1 | 2300 nM | 6900 nM
2 | C/C(=C/CCC(C)[C@@H]1CC[C@]2(C)C3=C(CC[C@@]12C)[C@@]1(C)CCC(=O)C(C)(C)[C@@H]1CC3)C(=O)O (some centres undefined) | 1110 nM | 2710 nM
3 | CN(C)C1C(=O)C(C(N)=O)=C(O)C2(O)C(=O)C3=C(O)c4c(O)cccc4C(C)(O)C3CC12.[Cl][Sb]([Cl])[Cl] (centres undefined) | 2500 nM | 8830 nM
4 | N#Cc1cc(F)cc(Oc2ccc(S(=O)(=O)C(F)F)c3c2CC(F)(F)[C@H]3O)c1 | 16600 nM | 66900 nM
5 | CCOC(=O)[C@@H](C)C[C@H](Cc1ccccc1)NC(=O)c1csc([C@@H](C[C@H](C(C)C)N(C)C(=O)CNC(=O)[C@H]2CCCCN2C)OC(C)=O)n1 | 216 nM | 736 nM
6 | Nc1ncnc2c1c(-c1ccc(Oc3ccccc3)cc1)nn2CC1SSCC1O (centres undefined) | 801 nM | 2020 nM
7 | Nc1c(C(=O)Nc2ccccc2)sc2nc3c(cc12)C(=O)CCC3 | 161 nM | 611 nM
8 | CCN(CC)CCCC(Nc1c2ccc(Cl)cc2nc2ccc(OC)cc12)c1ccc(Cl)cc1 (centres undefined) | 352 nM | 1190 nM
9 | CC(=O)Nc1cccc(C#Cc2cncnc2Nc2ccc(OCc3cccc(F)c3)c(Cl)c2)c1 | 1140 nM | 5670 nM
10 | COc1ccc(-c2cnc(-c3ccncc3-c3cccc(OC)c3)o2)cc1 | 178 nM | 10400 nM
11 | Cc1ccc2ccc3c4ccccc4ccc3c2c1 | 16100 nM | 40400 nM
12 | C[C@@H]1C[C@H]2C(=O)O[C@@H](C)C(NC(=O)[C@H](Cc3cc(F)cc(F)c3)NC(=O)Nc3ccc(OS(=O)(=O)F)cc3)C(=O)N3CCC[C@H]3C(=O)N3CCO[C@H](C)[C@H]3C(=O)N[C@@H](CO)C(=O)N2C1 (stereo partly drawn) ({X24-CO}-[Phe(3,5-F2)][ξThr(3S)]P[X25]S[Pro(4R-Me)]; ester 2-C) | 416 nM | 5810 nM
13 | O=C(NNc1nc2cc(F)ccc2n2c(CN3CCC(O)C3)ccc12)c1cnccn1 (centres undefined) | 815 nM | 7630 nM
14 | OCc1ccc(-c2ccc(-c3ccc(CO)o3)o2)o1 | 764 nM | 3050 nM
15 | CN(C)CCNC(=O)Nc1ccc(N(C)c2ccnc(Nc3ccc(CS(C)(=O)=O)cc3)n2)cc1 | > 13300 nM | > 25000 nM
16 | O=c1[nH]c(=S)[nH]c(O)c1/C=C1\C=Nc2ccccc21 | 14400 nM | 31100 nM
17 | CO[C@H]1C(=O)[C@]2(C)[C@@H](OC)C[C@H]3OC[C@@]3(OC(C)=O)[C@H]2[C@H](OC(=O)c2ccccc2)[C@]2(O)C[C@H](OC(=O)[C@H](O)[C@@H](NC(=O)OC(C)(C)C)c3ccccc3)C(C)=C1C2(C)C | < 10 nM | 419 nM
18 | C#COc1cccc(Nc2ncnc3cc(NC(=O)[C@@H](C)Cl)ccc23)c1 | 13500 nM | 50800 nM
19 | COc1cc([C@@H]2c3cc4c(cc3[C@H](SC(=N)N)[C@H]3COC(=O)[C@H]23)OCO4)cc(OC)c1OC | 106 nM | 2570 nM
20 | Cc1ccccc1Nc1cc(O)c2c(=O)cc(-c3ccccc3)oc2c1 | 379 nM | 3030 nM
21 | COC(=O)[C@]12CC[C@@H](C)[C@H](C)[C@@H]1C1=CC[C@@H]3[C@@]4(C)C(C=O)=C[C@@](C)(COS(C)(=O)=O)C4=CC[C@@]3(C)[C@]1(C)CC2 | 247 nM | 752 nM
22 | NC1=NC(c2ccccc2Cl)c2c(n[nH]c2N)N1 (centres undefined) | 11100 nM | 99600 nM
